Patent publication US8367365B2, “Method for determining carbohydrate and kit for determining carbohydrate” (priority 2008, dated 2013)
Like-named read-outs stand apart in the source and are kept apart here.

System: porcine small intestinal mucosal disaccharidase (suspension of porcine small intestinal mucosal brush border membrane)
Type: in vitro ADME
Conditions: porcine small intestine-derived disaccharidase added to the enzyme reaction system, HPLC
Text: In the method for determining a carbohydrate according to the embodiment of the present invention and the method for determining a carbohydrate according to Examples described below, a suspension of porcine small intestinal mucosal brush border membrane is used as the animal-derived low-molecular-weight carbohydrate digestive enzyme.

- Digestion by porcine small intestinal mucosal disaccharidases (result in words): almost completely digested
- Digestion by porcine small intestinal mucosal disaccharidases (result in words) (listed as Sucrose): completely digested
SMILES: OC[C@H]1O[C@@](CO)(O[C@H]2O[C@H](CO)[C@@H](O)[C@H](O)[C@H]2O)[C@@H](O)[C@@H]1O [sucrose]
